Measurements reported in PubChem BioAssay (NCI).
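1) Cells in 96-well plates. 2) Compound, 48 h, 5 concentrations. 3) Linear interpolation between surrounding doses. 4) Unreached endpoint = highest concentration. Abbreviation: GI50, concentration required for 50% inhibition of growth. At the TGI there is no net growth.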

Legend:
Assay in all cases: DTP human tumour cell line panel, 48 h
OVCAR-4 ovarian = tested on: OVCAR-4 ovarian
RPMI-8226 leukemia = tested on: RPMI-8226 leukemia
TK-10 renal = tested on: TK-10 renal
NCI-H226 lung = tested on: NCI-H226 lung
OVCAR-8 ovarian = tested on: OVCAR-8 ovarian
HL-60(TB) leukemia = tested on: HL-60(TB) leukemia
RXF 393 renal = tested on: RXF 393 renal
CCRF-CEM leukemia = tested on: CCRF-CEM leukemia
A498 renal = tested on: A498 renal
MALME-3M melanoma = tested on: MALME-3M melanoma
HOP-92 NSCLC = tested on: HOP-92 NSCLC
HCT-116 colon = tested on: HCT-116 colon
HCC-2998 colon = tested on: HCC-2998 colon
UACC-257 melanoma = tested on: UACC-257 melanoma
U251 CNS = tested on: U251 CNS
MDA-MB-231 breast = tested on: MDA-MB-231 breast
SR leukemia = tested on: SR leukemia
786-0 renal = tested on: 786-0 renal
IGROV1 ovarian = tested on: IGROV1 ovarian
SK-MEL-2 melanoma = tested on: SK-MEL-2 melanoma
UACC-62 melanoma = tested on: UACC-62 melanoma
UO-31 renal = tested on: UO-31 renal
SF-539 CNS = tested on: SF-539 CNS
SK-OV-3 ovarian = tested on: SK-OV-3 ovarian
COLO 205 colon = tested on: COLO 205 colon
T-47D breast = tested on: T-47D breast
K-562 leukemia = tested on: K-562 leukemia
SW-620 colon = tested on: SW-620 colon
EKVX NSCLC = tested on: EKVX NSCLC
SF-295 CNS = tested on: SF-295 CNS
CAKI-1 renal = tested on: CAKI-1 renal
M14 melanoma = tested on: M14 melanoma
A549 NSCLC = tested on: A549 NSCLC
SK-MEL-28 melanoma = tested on: SK-MEL-28 melanoma
BT-549 breast = tested on: BT-549 breast
HS 578T breast = tested on: HS 578T breast
SN12C renal = tested on: SN12C renal
MDA-MB-435 = tested on: MDA-MB-435
DU-145 prostate = tested on: DU-145 prostate
MCF7 breast = tested on: MCF7 breast
SF-268 CNS = tested on: SF-268 CNS
PC-3 prostate = tested on: PC-3 prostate
OVCAR-5 ovarian = tested on: OVCAR-5 ovarian
NCI/ADR-RES ovarian = tested on: NCI/ADR-RES ovarian
ACHN renal = tested on: ACHN renal
HT29 colon = tested on: HT29 colon
SNB-75 CNS = tested on: SNB-75 CNS
MOLT-4 leukemia = tested on: MOLT-4 leukemia
NCI-H522 lung = tested on: NCI-H522 lung
NCI-H23 lung = tested on: NCI-H23 lung
SK-MEL-5 melanoma = tested on: SK-MEL-5 melanoma
HOP-62 NSCLC = tested on: HOP-62 NSCLC
SNB-19 CNS = tested on: SNB-19 CNS
NCI-H460 lung = tested on: NCI-H460 lung
OVCAR-3 ovarian = tested on: OVCAR-3 ovarian
LOX IMVI melanoma = tested on: LOX IMVI melanoma
KM12 colon = tested on: KM12 colon
HCT-15 colon = tested on: HCT-15 colon

## C=C1CCC2C3(C)COC(c4ccc(SC)cc4)OC3CCC2(C)C1C/C=C1/C(=O)OCC1O (stereo unspecified)
OVCAR-4 ovarian
  GI50: 5.81 µM
  TGI: 18.7 µM
RPMI-8226 leukemia
  GI50: 2.64 µM
  TGI: 15.1 µM
TK-10 renal
  GI50: 14 µM
  TGI: 29.9 µM
NCI-H226 lung
  GI50: 7.85 µM
  TGI: 25.7 µM
OVCAR-8 ovarian
  GI50: 2.14 µM
  TGI: 6.56 µM
HL-60(TB) leukemia
  GI50: 2.59 µM
  TGI: 7.87 µM
RXF 393 renal
  GI50: 4.51 µM
  TGI: 15.6 µM
CCRF-CEM leukemia
  GI50: 2.92 µM
  TGI: 13.7 µM
A498 renal
  GI50: 8.64 µM
  TGI: 22.4 µM
MALME-3M melanoma
  GI50: 14.9 µM
  TGI: 32.1 µM
HOP-92 NSCLC
  GI50: 5.19 µM
  TGI: 17.1 µM
HCT-116 colon
  GI50: 1.76 µM
  TGI: 3.44 µM
HCC-2998 colon
  GI50: 11.9 µM
  TGI: 24.9 µM
UACC-257 melanoma
  GI50: 4.17 µM
  TGI: 17.4 µM
U251 CNS
  GI50: 2.29 µM
  TGI: 5.7 µM
MDA-MB-231 breast
  GI50: 5.52 µM
  TGI: 16.5 µM
SR leukemia
  GI50: 2.53 µM
  TGI: 8.04 µM
786-0 renal
  GI50: 6.7 µM
  TGI: 19.2 µM
IGROV1 ovarian
  GI50: 4.3 µM
  TGI: 15.9 µM
SK-MEL-2 melanoma
  GI50: 3.73 µM
  TGI: 15.5 µM
UACC-62 melanoma
  GI50: 5.45 µM
  TGI: 20.4 µM
UO-31 renal
  GI50: 9.73 µM
  TGI: 21.9 µM
SF-539 CNS
  GI50: 4.75 µM
  TGI: 9.38 µM
SK-OV-3 ovarian
  GI50: 16.3 µM
  TGI: 32 µM
COLO 205 colon
  GI50: 7.72 µM
  TGI: 20.6 µM
T-47D breast
  GI50: 2.53 µM
  TGI: 13.7 µM
K-562 leukemia
  GI50: 2.66 µM
  TGI: 12.2 µM
SW-620 colon
  GI50: 1.93 µM
  TGI: 3.66 µM
EKVX NSCLC
  GI50: 7.67 µM
  TGI: 26.9 µM
SF-295 CNS
  GI50: 8.14 µM
  TGI: 23.7 µM
CAKI-1 renal
  GI50: 11.2 µM
  TGI: 28.2 µM
M14 melanoma
  GI50: 6.53 µM
  TGI: 17.7 µM
A549 NSCLC
  GI50: 5.31 µM
  TGI: 18.4 µM
SK-MEL-28 melanoma
  GI50: 8.67 µM
  TGI: 21.1 µM
BT-549 breast
  GI50: 4.38 µM
  TGI: 20.9 µM
HS 578T breast
  GI50: 5.17 µM
  TGI: 17 µM
SN12C renal
  GI50: 3.94 µM
  TGI: 18.6 µM
MDA-MB-435
  GI50: 3.69 µM
  TGI: 16.4 µM
DU-145 prostate
  GI50: 11.5 µM
  TGI: 23.7 µM
MCF7 breast
  GI50: 3.04 µM
  TGI: 11.7 µM
SF-268 CNS
  GI50: 6.8 µM
  TGI: 19.9 µM
PC-3 prostate
  GI50: 5.67 µM
  TGI: 20.2 µM
OVCAR-5 ovarian
  GI50: 10.3 µM
  TGI: 25.2 µM
NCI/ADR-RES ovarian
  GI50: 2.78 µM
  TGI: 8.18 µM
ACHN renal
  GI50: 6.25 µM
  TGI: 17.2 µM
HT29 colon
  GI50: 2.42 µM
  TGI: 7.02 µM
SNB-75 CNS
  GI50: 10.1 µM
  TGI: 21.7 µM
MOLT-4 leukemia
  GI50: 3.43 µM
  TGI: 20.9 µM
NCI-H522 lung
  GI50: 1.92 µM
  TGI: 5.98 µM
NCI-H23 lung
  GI50: 4.48 µM
  TGI: 17.4 µM
SK-MEL-5 melanoma
  GI50: 6.85 µM
  TGI: 19.4 µM
HOP-62 NSCLC
  GI50: 17.3 µM
  TGI: 32.8 µM
SNB-19 CNS
  GI50: 16.8 µM
  TGI: 30.6 µM
NCI-H460 lung
  GI50: 8.78 µM
  TGI: 22.3 µM
OVCAR-3 ovarian
  GI50: 2.8 µM
  TGI: 6.91 µM
LOX IMVI melanoma
  GI50: 1.44 µM
  TGI: 3.01 µM
KM12 colon
  GI50: 5.21 µM
  TGI: 17.6 µM
HCT-15 colon
  GI50: 2.37 µM
  TGI: 7.96 µM
